In ChEMBL document CHEMBL1155011, “Structure-activity relationships of the cycloalkanol ethylamine scaffold: discovery of selective norepinephrine reuptake inhibitors” (J Med Chem, 2008):

Tests used:
[1] = molecular target: T1, Sodium-dependent noradrenaline transporter (Homo sapiens, UniProt P23975)
[2] = molecular target: T2, Sodium-dependent dopamine transporter (Homo sapiens, UniProt Q01959); experiment: Displacement of [3H]WIN-35428 from human recombinant dopamine transporter expressed in CHO cells at 1000 nM; type: cell-based
[3] = molecular target: T1, Sodium-dependent noradrenaline transporter; experiment: biochemical
Description: Displacement of [3H]nisoxetine from human norepinephrine transporter expressed in MDCK-Net6 cells

[4] = molecular target: T3, Sodium-dependent serotonin transporter (Homo sapiens, UniProt P31645); type: cell-based, JAR
Target sequence in this assay (P31645 whole entry): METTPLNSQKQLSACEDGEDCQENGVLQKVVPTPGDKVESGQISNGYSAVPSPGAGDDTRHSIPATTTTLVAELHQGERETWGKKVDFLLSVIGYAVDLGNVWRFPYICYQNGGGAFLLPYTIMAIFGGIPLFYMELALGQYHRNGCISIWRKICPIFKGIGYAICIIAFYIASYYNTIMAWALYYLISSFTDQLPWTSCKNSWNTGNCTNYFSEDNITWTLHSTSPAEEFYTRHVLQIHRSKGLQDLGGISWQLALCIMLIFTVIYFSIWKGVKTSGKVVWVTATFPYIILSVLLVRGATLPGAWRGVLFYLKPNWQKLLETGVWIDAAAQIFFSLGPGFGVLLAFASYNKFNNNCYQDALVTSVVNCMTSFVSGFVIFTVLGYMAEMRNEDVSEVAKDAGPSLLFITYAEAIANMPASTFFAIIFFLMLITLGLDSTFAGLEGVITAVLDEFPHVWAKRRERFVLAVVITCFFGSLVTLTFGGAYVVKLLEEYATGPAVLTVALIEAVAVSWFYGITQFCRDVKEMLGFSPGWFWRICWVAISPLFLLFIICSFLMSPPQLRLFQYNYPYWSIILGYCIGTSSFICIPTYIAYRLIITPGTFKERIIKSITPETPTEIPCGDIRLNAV

[5] = molecular target: T3, Sodium-dependent serotonin transporter; experiment: Inhibition of 5HT uptake at human SERT expressed in human JAR cells at 1000 nM; type: cell-based
Target sequence in this assay (P31645 whole entry, looked up): as the sequence (P31645 whole entry) above

[6] = molecular target: Transporter (Rattus norvegicus, UniProt Q63380)
Description: Inhibition of norepinephrine uptake at rat brain norepinephrine transporter

[7] = molecular target: T2, Sodium-dependent dopamine transporter; experiment: biochemical
[8] = molecular target: T1, Sodium-dependent noradrenaline transporter; experiment: Inhibition of norepinephrine uptake at human norepinephrine transporter expressed in MDCK-Net6 cells at 1000 nM; type: cell-based
[9] = species on record: Homo sapiens; experiment: Selectivity ratio of IC50 for human NET over IC50 for human SERT
[10] = molecular target: Sodium-dependent serotonin transporter (Rattus norvegicus, UniProt P31652)
Sequence of Sodium-dependent serotonin transporter (Rattus norvegicus, UniProt P31652) (P31652 whole entry): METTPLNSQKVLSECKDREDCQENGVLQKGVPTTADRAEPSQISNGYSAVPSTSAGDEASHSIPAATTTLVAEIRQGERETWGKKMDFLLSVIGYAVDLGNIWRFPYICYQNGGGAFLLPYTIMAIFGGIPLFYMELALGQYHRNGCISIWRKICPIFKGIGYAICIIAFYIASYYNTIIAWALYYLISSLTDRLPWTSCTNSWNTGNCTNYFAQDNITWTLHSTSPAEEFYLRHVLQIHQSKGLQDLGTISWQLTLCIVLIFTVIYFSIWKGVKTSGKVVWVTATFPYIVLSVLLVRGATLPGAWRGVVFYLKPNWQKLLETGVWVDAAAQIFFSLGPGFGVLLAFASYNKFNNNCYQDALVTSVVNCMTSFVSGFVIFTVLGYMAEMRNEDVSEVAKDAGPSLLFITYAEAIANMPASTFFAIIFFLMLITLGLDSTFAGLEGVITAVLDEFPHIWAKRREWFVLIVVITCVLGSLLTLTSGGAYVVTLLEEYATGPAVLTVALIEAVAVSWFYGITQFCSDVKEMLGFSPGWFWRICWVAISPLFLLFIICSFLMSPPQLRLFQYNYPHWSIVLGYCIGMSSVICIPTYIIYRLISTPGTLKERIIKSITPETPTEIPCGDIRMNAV
Description: Inhibition of 5HT uptake at rat brain SERT

Sequence of Transporter (Q63380 whole entry): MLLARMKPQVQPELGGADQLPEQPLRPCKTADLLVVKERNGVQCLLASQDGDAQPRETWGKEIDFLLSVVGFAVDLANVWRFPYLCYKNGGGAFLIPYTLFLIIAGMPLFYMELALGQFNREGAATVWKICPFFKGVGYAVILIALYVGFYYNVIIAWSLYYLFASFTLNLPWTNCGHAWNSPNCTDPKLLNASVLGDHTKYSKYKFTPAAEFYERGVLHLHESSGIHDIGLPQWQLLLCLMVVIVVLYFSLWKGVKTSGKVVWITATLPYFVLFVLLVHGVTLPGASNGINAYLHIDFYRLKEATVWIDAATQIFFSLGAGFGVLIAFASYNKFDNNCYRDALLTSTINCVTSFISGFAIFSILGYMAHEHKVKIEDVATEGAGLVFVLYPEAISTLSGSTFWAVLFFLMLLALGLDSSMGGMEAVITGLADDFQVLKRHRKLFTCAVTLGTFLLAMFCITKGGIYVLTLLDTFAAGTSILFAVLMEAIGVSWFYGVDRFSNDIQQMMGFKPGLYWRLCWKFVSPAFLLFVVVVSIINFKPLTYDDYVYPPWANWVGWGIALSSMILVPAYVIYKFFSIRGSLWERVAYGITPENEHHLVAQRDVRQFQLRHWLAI
T2 sequence (Q01959 whole entry): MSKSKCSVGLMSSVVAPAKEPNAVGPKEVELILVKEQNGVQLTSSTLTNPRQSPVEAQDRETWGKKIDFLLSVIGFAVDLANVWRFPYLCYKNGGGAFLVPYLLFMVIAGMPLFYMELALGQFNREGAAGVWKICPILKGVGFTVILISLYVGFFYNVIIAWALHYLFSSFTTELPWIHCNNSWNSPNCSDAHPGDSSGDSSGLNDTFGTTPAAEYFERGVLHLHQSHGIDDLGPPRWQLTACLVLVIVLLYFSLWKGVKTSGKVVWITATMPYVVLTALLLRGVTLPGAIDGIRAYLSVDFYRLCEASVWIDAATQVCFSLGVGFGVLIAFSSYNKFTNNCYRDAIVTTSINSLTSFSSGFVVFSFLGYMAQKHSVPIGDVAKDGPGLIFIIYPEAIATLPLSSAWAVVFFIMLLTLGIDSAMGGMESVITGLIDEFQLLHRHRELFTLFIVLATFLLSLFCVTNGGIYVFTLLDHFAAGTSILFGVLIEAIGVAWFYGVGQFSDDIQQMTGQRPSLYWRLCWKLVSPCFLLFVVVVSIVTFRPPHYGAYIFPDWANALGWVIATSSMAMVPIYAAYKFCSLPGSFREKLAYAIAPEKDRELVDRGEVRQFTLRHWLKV
T1 sequence (P23975 whole entry): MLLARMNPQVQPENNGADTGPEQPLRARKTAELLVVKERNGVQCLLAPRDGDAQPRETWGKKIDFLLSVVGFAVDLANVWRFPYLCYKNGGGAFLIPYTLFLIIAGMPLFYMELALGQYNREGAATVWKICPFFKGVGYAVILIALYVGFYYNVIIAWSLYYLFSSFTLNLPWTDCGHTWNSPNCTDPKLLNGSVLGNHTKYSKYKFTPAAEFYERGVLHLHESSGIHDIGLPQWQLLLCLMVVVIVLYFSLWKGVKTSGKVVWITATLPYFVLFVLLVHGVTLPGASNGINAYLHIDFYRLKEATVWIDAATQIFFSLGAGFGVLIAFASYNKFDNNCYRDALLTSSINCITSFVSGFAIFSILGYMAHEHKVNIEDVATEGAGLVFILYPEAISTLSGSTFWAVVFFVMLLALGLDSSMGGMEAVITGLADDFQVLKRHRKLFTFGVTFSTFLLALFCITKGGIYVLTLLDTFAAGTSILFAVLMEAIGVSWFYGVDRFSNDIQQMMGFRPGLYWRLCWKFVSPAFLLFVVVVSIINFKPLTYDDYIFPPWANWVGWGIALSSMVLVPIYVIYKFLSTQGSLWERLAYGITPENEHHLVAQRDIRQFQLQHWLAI

CN1CCN(CC(c2ccc(OC(F)(F)F)cc2)C2(O)CCCCC2)CC1 (stereo unspecified)
IC50 [1]: 575 nM
Activity [2]: 13%
Ki [3]: 417 nM
IC50 [4]: 1210 nM

COc1cccc(C(CN2CCNCC2)C2(O)CCCCC2)c1 (stereo unspecified)
IC50 [1]: 870 nM
inhibition [5]: 8%
Activity [2]: 2%
Ki [3]: 745 nM

OC1(C(CN2CCNCC2)c2ccc(F)cc2)CCCCC1 (stereo unspecified)
IC50 [1]: 1500 nM
inhibition [5]: 29%
Activity [2]: 22%
Ki [3]: 1030 nM

COc1cccc(C(CN2CCN(C)CC2)C2(O)CCCCC2)c1 (stereo unspecified)
IC50 [1]: 600 nM
inhibition [5]: 14%
Activity [2]: 4%
Ki [3]: 514 nM

CN(C)CC(c1cccc(Cl)c1)C1(O)CCCCC1 (stereo unspecified)
IC50 [6]: 160 nM
Activity [2]: 28%

OC1([C@H](CN2CCNCC2)c2cccc(Cl)c2)CCCCC1
IC50 [1]: 25 nM
Ki [7]: 135 nM
Ki [3]: 17 nM
IC50 [4]: 2670 nM

OC1(C(CN2CCNCC2)c2ccc(Cl)cc2)CCCCC1 (stereo unspecified)
Activity [2]: 35%
Ki [3]: 717 nM
inhibition [8]: 29%
IC50 [4]: 1520 nM

OC1(C(CN2CCNCC2)c2cccc(OC(F)(F)F)c2)CCCCC1 (stereo unspecified)
IC50 [1]: 284 nM
inhibition [5]: 3%
Activity [2]: 13%
Ki [3]: 140 nM

CN1CCN(CC(c2cccc(F)c2)C2(O)CCCCC2)CC1 (stereo unspecified)
IC50 [1]: 240 nM
inhibition [5]: 12%
Activity [2]: 29%
Ki [3]: 364 nM

CN(C)CC(c1ccc(Cl)cc1)C1(O)CCCCC1 (stereo unspecified)
IC50 [1]: 120 nM
IC50 [6]: 300 nM
Activity [2]: 23%
Ki [3]: 249 nM
Ratio IC50 [9]: 1
IC50 [4]: 123 nM

OC1(C(CN2CCNCC2)c2cccc(F)c2)CCCCC1 (stereo unspecified)
IC50 [1]: 673 nM
inhibition [5]: 12%
Activity [2]: 22%
Ki [3]: 368 nM

CN(C)CC(c1ccccc1Cl)C1(O)CCCCC1 (stereo unspecified)
IC50 [1]: 205 nM
IC50 [6]: 640 nM
Activity [2]: 9%
Ki [3]: 125 nM
Ratio IC50 [9]: 0.86
IC50 [4]: 177 nM
IC50 [10]: 13 nM

OC1([C@H](CN2CCNCC2)c2cccc(OC(F)(F)F)c2)CCCCC1
IC50 [1]: 140 nM
inhibition [5]: 3%
Activity [2]: 13%
Ki [3]: 117 nM

CN1CCN(CC(c2ccc(Cl)cc2)C2(O)CCCCC2)CC1 (stereo unspecified)
inhibition [5]: 0%
Activity [2]: 26%
Ki [3]: 1220 nM
inhibition [8]: 7%

CN1CCN(C[C@@H](c2cccc(Cl)c2)C2(O)CCCCC2)CC1
IC50 [1]: 577 nM
inhibition [5]: 0%
Ki [7]: 235 nM
Ki [3]: 187 nM

COc1cccc(C(CN(C)C)C2(O)CCCCC2)c1 (stereo unspecified)
IC50 [1]: 208 nM
IC50 [6]: 620 nM
Activity [2]: 9%
Ki [3]: 316 nM
Ratio IC50 [9]: 0.42
IC50 [4]: 88 nM

CN1CCN(CC(c2cccc(OC(F)(F)F)c2)C2(O)CCCCC2)CC1 (stereo unspecified)
inhibition [5]: 12%
Activity [2]: 3%
